Data from patent publication US8710043B2, “TRPM8 antagonists and their use in treatments” (Amgen Inc., priority 2011, dated 2014).

Target: T1, human TRPM8 (Homo sapiens, UniProt Q7Z2W7)
T1 construct: expressed in transfected cells; host or cells: Chinese hamster ovary (CHO) cells, T-REx tetracycline-inducible system, co-transfected with aequorin
Assay: Luminescence readout assay for measuring intracellular calcium, icilin activation
Format: cell-based
Conditions: CHO cells expressing human TRPM8, aequorin luminescence, 1 μM icilin activation; read-out: hTRPM8 IC50
In short: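 The read-out was luminescence reporting intracellular calcium, recorded by a CCD-based luminometer. Compounds were preincubated for 2.5 min before agonist challenge with 1 μM icilin. Human TRPM8 was expressed in a stable T-REx CHO line, induced with 0.5 μg/mL tetracycline the day before.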

T1 sequence (Q7Z2W7 whole entry): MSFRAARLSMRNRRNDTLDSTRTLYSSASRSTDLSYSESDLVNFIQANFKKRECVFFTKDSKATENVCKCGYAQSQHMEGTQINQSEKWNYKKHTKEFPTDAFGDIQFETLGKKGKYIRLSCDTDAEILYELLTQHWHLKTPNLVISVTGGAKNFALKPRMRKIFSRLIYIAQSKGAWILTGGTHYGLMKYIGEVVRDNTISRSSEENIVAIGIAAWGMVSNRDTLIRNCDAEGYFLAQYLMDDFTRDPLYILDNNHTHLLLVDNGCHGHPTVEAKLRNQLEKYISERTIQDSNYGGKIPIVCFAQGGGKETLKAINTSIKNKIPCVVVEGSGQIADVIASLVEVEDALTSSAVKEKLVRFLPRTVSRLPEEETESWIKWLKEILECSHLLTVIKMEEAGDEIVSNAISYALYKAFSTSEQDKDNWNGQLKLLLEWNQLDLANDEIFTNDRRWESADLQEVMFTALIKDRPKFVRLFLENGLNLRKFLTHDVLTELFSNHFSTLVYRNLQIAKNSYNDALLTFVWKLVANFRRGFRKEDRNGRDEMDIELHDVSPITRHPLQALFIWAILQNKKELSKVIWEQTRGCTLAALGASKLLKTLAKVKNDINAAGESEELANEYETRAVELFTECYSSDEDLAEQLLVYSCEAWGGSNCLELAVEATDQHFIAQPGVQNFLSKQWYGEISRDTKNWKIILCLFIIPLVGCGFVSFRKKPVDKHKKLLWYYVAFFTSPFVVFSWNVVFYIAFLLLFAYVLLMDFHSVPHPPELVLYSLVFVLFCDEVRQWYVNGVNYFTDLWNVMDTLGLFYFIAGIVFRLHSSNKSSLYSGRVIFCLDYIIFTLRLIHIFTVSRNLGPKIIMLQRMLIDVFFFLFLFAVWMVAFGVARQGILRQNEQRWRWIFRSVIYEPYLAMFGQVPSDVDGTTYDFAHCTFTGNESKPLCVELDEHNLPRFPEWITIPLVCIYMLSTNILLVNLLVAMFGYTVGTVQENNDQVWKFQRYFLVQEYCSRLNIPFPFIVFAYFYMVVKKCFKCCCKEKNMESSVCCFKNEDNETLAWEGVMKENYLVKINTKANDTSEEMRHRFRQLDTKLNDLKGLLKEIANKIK

Row | Compound | IC50 [nM]
1 | O=C(N[C@@H](c1ccc(C(F)(F)F)cc1)c1ncccc1C(F)(F)F)c1ccc[nH]c1=O [Example 59, (S)-2-oxo-N-((4-(trifluoromethyl)phenyl)(3-(trifluoromethyl)pyridin-2-yl)methyl)-1,2-dihydropyridine-3-carboxamide] | 41.6
2 | CC(C)c1ccc(C(=O)N[C@@H](c2ccc(C(F)(F)F)cc2)c2ncccc2C(F)(F)F)cc1 [Example 127, (S)-4-isopropyl-N-((4-(trifluoromethyl)phenyl)(3-(trifluoromethyl)pyridin-2-yl)methyl)benzamide] | 584
3 | O=C(N[C@@H](c1ccc(C(F)(F)F)cc1)c1ncccc1C(F)(F)F)c1cncnc1O [Example 61, (S)-4-hydroxy-N-((4-(trifluoromethyl)phenyl)(3-(trifluoromethyl)pyridin-2-yl)methyl)pyrimidine-5-carboxamide] | 312
4 | O=C(N[C@@H](c1ccc(C(F)(F)F)c(F)c1)c1ncccc1C(F)(F)F)[C@@H]1CCCO1 [Example 119, (S)-N-((S)-(3-fluoro-4-(trifluoromethyl)phenyl)(3-(trifluoromethyl)pyridin-2-yl)methyl)THF-2-carboxamide] | 100
5 | O=C(N[C@@H](c1ccc(C(F)(F)F)cc1)c1ncccc1F)c1ccc2c(O)ccnc2c1 [Example 105, (S)-N-((3-fluoropyridin-2-yl)(4-(trifluoromethyl)phenyl)methyl)-4-hydroxyquinoline-7-carboxamide 2,2,2-trifluoroacetate] | 10.8
6 | COC(=O)c1cccc(C(=O)N[C@@H](c2ccc(C(F)(F)F)cc2)c2ncccc2C(F)(F)F)c1 [Example 189, (S)-methyl 3-(((4-(trifluoromethyl)phenyl)(3-(trifluoromethyl)pyridin-2-yl)methyl)carbamoyl)benzoate] | 80.6
7 | N#Cc1ccc(C(=O)N[C@@H](c2ccc(C(F)(F)F)cc2)c2ncccc2C(F)(F)F)cn1 [Example 206, (S)-6-cyano-N-((4-(trifluoromethyl)phenyl)(3-(trifluoromethyl)pyridin-2-yl)methyl)nicotinamide] | 67.5
8 | O=C(N[C@@H](c1ccc(Cl)cc1)c1ncccc1C(F)(F)F)c1ccc2cccnc2c1 [Example 6, (S)-N-((4-chlorophenyl)(3-(trifluoromethyl)pyridin-2-yl)methyl)quinoline-7-carboxamide] | 73.9
9 | O=C(N[C@@H](c1ccc(C(F)(F)F)cc1)c1ncccc1F)c1ccc2ccc(=O)[nH]c2c1 [Example 125, (S)-N-((3-fluoropyridin-2-yl)(4-(trifluoromethyl)phenyl)methyl)-2-oxo-1,2-dihydroquinoline-7-carboxamide] | 176
10 | O=C(NC(c1ccc(C(F)(F)F)cc1)c1ncccc1F)c1ccc2nccnc2c1 (centres unmarked) [Example 202, N-((3-fluoropyridin-2-yl)(4-(trifluoromethyl)phenyl)methyl)quinoxaline-6-carboxamide] | 35.2
11 | O=C(N[C@@H](c1ccc(OC(F)(F)F)c(F)c1)c1ncccc1F)c1cnc2[nH]c(=O)oc2c1 [Example 427, (S)—N-((3-Fluoro-4-(trifluoromethoxy)phenyl)(3-fluoropyridin-2-yl)methyl)-2-oxo-2,3-dihydrooxazolo[4,5-b]pyridine-6-carboxamide] | 14
